From the METLIN SMRT retention time set (Domingo-Almenara et al. 2019)

Experiment: gradient 5% acetonitrile 3 min, to 50% in 2 min, to 85% in 15 min, held 3 min, 100 µL/min
Conditions: column: Zorbax Extend-C18 2.1 x 50 mm; eluents: water / acetonitrile, 0.1% formic acid
Summary of the method: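 Retention times of pure standards were taken from adduct peaks that were selected by computer and manually inspected. Over 3 months, mixtures of ~100 molecules were run by HPLC–quadrupole time-of-flight mass spectrometry in positive and negative ionization mode. The Zorbax Extend-C18 column (2.1 × 50 mm, 1.8 μm) ran at 100 μL/min in water and acetonitrile, each containing 0.1% formic acid, with 40 μL dead volume and 900 μL dwell volume.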
Work on `COc1cccc2c1C(=O)c1c(O)c3c(c(O)c1C2=O)C[C@@](O)(C(C)=O)C[C@@H]3OC1CC(N(C)C)C(O)C(C)O1` (some centres undefined) yielded an RP-LC retention time of 666 s. In the case of `Cc1ccc(C(=O)NCc2ccc3c(c2)nnn3C)cc1`, the RP-LC retention time is reported as 693 s. Work on `O=C(CSCc1cnn(-c2ccccc2)c1-n1cccc1)N1CCN(c2ccccn2)CC1` yielded an RP-LC retention time of 690 s. With `FC(F)Sc1ccc(-c2cn3cc(Cl)ccc3n2)cc1` the RP-LC retention time was 841 s. Compound `CCN1N=C(C(=O)N2CCC(C)CC2)S(=O)(=O)c2ccccc21` has an RP-LC retention time of 844 s. `O=C(NC1CCCCC1)C1CCN(C(=O)c2ncn3c2COC(c2ccc(F)cc2)C3)CC1` (centres undefined) showed an RP-LC retention time of 784 s. Compound `CCc1ccc(CNC(=O)C2CCCN(c3ncnc4nn(-c5ccc(C)cc5)cc34)C2)cc1` (centres undefined) has an RP-LC retention time of 787 s. `O=C(Nc1ccc2c(c1)CCCN2C(=O)c1ccco1)c1ccccc1C(F)(F)F` showed an RP-LC retention time of 792 s. Compound `COc1ccc(C2CC(=O)N(c3cccc(OC)c3)C(=O)C2)cc1` has an RP-LC retention time of 860 s. Work on `COc1cc(NC(=O)NC2CCN(c3ccc(F)cc3)C2=O)cc(OC)c1` (centres undefined) yielded an RP-LC retention time of 769 s. Work on `Cc1ccc(-c2cc(C(N)=O)[nH]n2)c(C)c1` yielded an RP-LC retention time of 668 s. Compound `Cc1ccc(N2CCC(NC(=O)c3ccc(F)c(F)c3)C2=O)cc1C` (centres undefined) has an RP-LC retention time of 918 s. With `CCc1ccc(NC(=O)N2CCc3nc(-c4ccccc4)ncc3C2)cc1` the RP-LC retention time was 1010 s. Compound `CCOC(=O)CNC(=O)NCc1cccn1Cc1cccc(F)c1` has an RP-LC retention time of 810 s. Compound `CO[C@@H]1C(O)[C@H](O[C@H]2CC[C@@]3(C=O)[C@H](CC[C@@H]4[C@@H]3CC[C@]3(C)[C@@H](C5=CC(=O)OC5)CC[C@]43O)C2)OC(C)[C@@H]1O` (some centres undefined) has an RP-LC retention time of 772 s. With `O=C(NCCCc1ccccc1)C1CCCN(c2nccnc2Sc2ccccc2)C1` (centres undefined) the RP-LC retention time was 1090 s. `c1ccc(-n2ncc3c(Nc4ccc5c(c4)OCO5)nc(N4CCCC4)nc32)cc1` showed an RP-LC retention time of 1350 s. Work on `O=C(Cc1ccc(F)cc1)NCc1ccc(-c2nc(C3CC3)no2)s1` yielded an RP-LC retention time of 885 s. In the case of `CC1CCCCN1C(=O)Cn1c(=O)n(C2CCCCC2)c(=O)c2ccccc21` (centres undefined), the RP-LC retention time is reported as 1010 s. Compound `O=C(NCc1ccc2c(c1)OCO2)c1ccc2ncnc(N3CCCC3)c2c1` has an RP-LC retention time of 630 s. `CC(C)n1c(C2CCN(C(=O)C3CCCO3)CC2)nn(C)c1=O` (centres undefined) showed an RP-LC retention time of 592 s. Work on `CCn1nc(C)c(CCN(C)C(=O)Nc2ccccc2C(=O)OC)c1C` yielded an RP-LC retention time of 744 s. For `CSc1ccc(-c2nc3ccc(C)cn3c2NC2CCCCC2)cc1`, the RP-LC retention time was 878 s. For `Cc1noc(Cn2cnc3c4ccccc4n(CC(=O)NC4CCCC4)c3c2=O)n1`, the RP-LC retention time was 744 s. With `CCOC(=O)c1cn(CC)c2cc(N3CCCC3)c(F)cc2c1=O` the RP-LC retention time was 822 s. Work on `CC(=O)N1c2ccc(S(=O)(=O)N3CCCCC3)cc2CC1C(=O)NCCN(C)C` (centres undefined) yielded an RP-LC retention time of 601 s. Work on `CC(C)n1c(CCNC(=O)c2c(F)cccc2F)nc2cccnc21` yielded an RP-LC retention time of 632 s. For `COc1cc(CNC(=O)C2CCN(c3nc(C4CCC4)nc4csc(C)c34)CC2)cc(OC)c1`, the RP-LC retention time was 748 s. Work on `COc1cc(-c2nc3ncccn3c2NCc2ccc(C)cc2)ccc1OC(C)C` yielded an RP-LC retention time of 811 s. `Cc1nc2cc(N3CCC(C(=O)O)CC3)cnc2nc1C` showed an RP-LC retention time of 611 s. `O=C(NCc1cccc(Br)c1)C(=O)c1ccc[nH]1` showed an RP-LC retention time of 874 s. Work on `CCc1ccc(NC(=O)Cn2ccc3ccc(-c4nnc(C)o4)cc32)cc1` yielded an RP-LC retention time of 885 s. In the case of `CCCCOc1ccc(C(=O)Nc2nc(-c3ccc(OC)c(C)c3)cs2)cc1`, the RP-LC retention time is reported as 1240 s. For `CCOC(=O)COc1cc(-c2ccc(C)cc2)nc2ccc(NC(=O)c3cccs3)cc12`, the RP-LC retention time was 830 s. Compound `CCN1C(=O)NC(c2ccccc2C(F)(F)F)C2=C1CN(CCC(=O)NCCOC)C2=O` (centres undefined) has an RP-LC retention time of 928 s. For `CC(=O)N(Cc1nn(C)c2c1CN(S(=O)(=O)c1ccc3c(c1)CCC3)CC2)c1ccccc1`, the RP-LC retention time was 868 s. Compound `CCCn1c(=O)c(-c2ccc(C(=O)NCCCN3CCCC3)cc2)nc2ccccc21` has an RP-LC retention time of 653 s. `CCc1cc(C(=O)Nc2cc(Cl)ccc2OC)nc2ccnn12` gave an RP-LC retention time of 1210 s. `O=C(Nc1ccccc1F)C1CCCN(S(=O)(=O)c2c[nH]c(C(=O)N3CCCCCC3)c2)C1` (centres undefined) gave an RP-LC retention time of 880 s. For `Cc1ccc(F)c(NC(=O)c2cc(C(C)C)n3nccc3n2)c1`, the RP-LC retention time was 1250 s. `COc1cc(NS(=O)(=O)c2cc3n(c2)CCN(C(C)C)C3=O)cc(OC)c1` gave an RP-LC retention time of 748 s. `CCOC(=O)c1ccccc1NC(=O)CSc1ccc(N2CCCC(C(=O)NC3CC3)C2)nn1` (centres undefined) showed an RP-LC retention time of 680 s. `Cc1nc(-c2csc(S(=O)(=O)N3CCC(C(=O)N4CCN(C)CC4)CC3)c2)no1` showed an RP-LC retention time of 616 s. `CSc1ccc(CNC(=O)Cc2cn(C)c3ncccc23)cc1` gave an RP-LC retention time of 686 s. `O=C(c1cccc(Br)c1)N1CCN(c2cc(-c3ccccc3)[nH]n2)CC1` gave an RP-LC retention time of 852 s. For `Cc1c(F)cccc1NC(=O)Nc1ccc2nnc(C)n2c1`, the RP-LC retention time was 718 s. `Cc1ccc(CS(=O)(=O)N2CCc3nc(-c4ccc(F)cc4)ncc3C2)cc1` showed an RP-LC retention time of 1110 s. For `Fc1ccc(OCc2nnc3sc(-c4ccccn4)nn23)cc1`, the RP-LC retention time was 846 s. For `CCc1ccc(OCc2nc(C)c(C(=O)Nc3nc(-c4ccc(C)cc4)cs3)s2)cc1`, the RP-LC retention time was 1420 s. For `CCc1nn2c(CNS(=O)(=O)c3ccccc3F)c(-c3ccccc3)nc2s1`, the RP-LC retention time was 907 s. Work on `O=C(Nc1ccccc1C(F)(F)F)N1CCc2nc[nH]c2C1` yielded an RP-LC retention time of 558 s. With `CCOC(=O)c1nc(NCCc2ccccc2)c2ccccc2n1` the RP-LC retention time was 769 s. Compound `O=C(CN1CCN(C(=O)CCc2ccccc2)CC1)c1cccs1` has an RP-LC retention time of 550 s. In the case of `Cc1cc2cc(CN3C(=O)c4ccccc4C3=O)ccc2[nH]1`, the RP-LC retention time is reported as 866 s. Work on `CCc1noc(C2(NC(=O)C(CC)c3ccccc3)CCCCC2)n1` (centres undefined) yielded an RP-LC retention time of 1090 s. For `COc1cc(-c2ccnc3nc(Cc4ccc(F)cc4)nn23)cc(OC)c1OC`, the RP-LC retention time was 695 s. In the case of `CNC(=O)c1ccsc1NC(=O)c1ccc(Cl)s1`, the RP-LC retention time is reported as 882 s. `COc1ccc(-c2nc3ncccn3c2NCc2ccc(F)cc2)cc1OC` gave an RP-LC retention time of 692 s. Compound `COc1ccc(NC(=O)N2CCc3cn(C)c4cccc(c34)C2)cc1Cl` has an RP-LC retention time of 917 s. Work on `Cc1nc(C)c(-c2nnc(NC(=O)C3CC(=O)N(c4ccc(F)cc4)C3)o2)s1` (centres undefined) yielded an RP-LC retention time of 652 s. `N#Cc1ccsc1NC(=O)CCSc1ccccc1` gave an RP-LC retention time of 879 s. With `O=C(c1cccc(Cl)c1)N1CCC(n2c(-c3ccoc3)nc3cccnc32)C1` (centres undefined) the RP-LC retention time was 776 s. `CCCCOCCCNCc1ccc2c(c1)n(C)c(=O)n2C` gave an RP-LC retention time of 593 s. `Cc1cc(N2C=C(C(=O)N3CCOCC3)S(=O)(=O)c3ccc(F)cc32)ccc1F` gave an RP-LC retention time of 814 s. For `CCOC(=O)c1c(C)[nH]c(C(=O)N2CCCC(C(=O)NCc3ccccc3F)C2)c1C` (centres undefined), the RP-LC retention time was 790 s. In the case of `CCN1C(=O)C(C)(C(=O)Nc2ccccc2C)Oc2cccnc21` (centres undefined), the RP-LC retention time is reported as 876 s. With `COc1cccc(C2c3c(oc4cc(C)c(C)cc4c3=O)C(=O)N2CCCN2CCOCC2)c1` (centres undefined) the RP-LC retention time was 695 s. Compound `O=C(NCc1nc(-c2ccc(N3CCCC3)cc2)no1)c1cccs1` has an RP-LC retention time of 962 s. With `COc1ccc(C2(C(=O)Nc3cc(-c4cccnc4)no3)CC2)cc1` the RP-LC retention time was 816 s. `COc1ccc(-c2cn3c(CC(=O)Nc4ccc(OC)c(Cl)c4)csc3n2)cc1` gave an RP-LC retention time of 805 s. Compound `COc1cccc(-c2csc(CN3CCNCC3)n2)c1` has an RP-LC retention time of 566 s. `COc1c(S(=O)(=O)Nc2cccnc2)ccc(Cl)c1Cl` showed an RP-LC retention time of 649 s. Work on `CCN1CCCC1CN(CC(=O)N1CCNCC1)S(=O)(=O)c1ccc(C(C)C)cc1` (centres undefined) yielded an RP-LC retention time of 604 s. With `C=CCN(CC=C)c1nc(-c2ccccc2)nc2ccccc12` the RP-LC retention time was 770 s. For `O=C(C1CCN(c2ncccc2-c2nc(-c3ccccc3)no2)CC1)N1CCN(c2ncccn2)CC1`, the RP-LC retention time was 967 s. With `Cc1ccnc(N2CCCC(C(=O)NCCc3ccc(S(N)(=O)=O)cc3)C2)n1` (centres undefined) the RP-LC retention time was 604 s. Work on `O=C1CCC2(C(=O)NCC3CC3)CCCC=C2N1c1ccccc1` (centres undefined) yielded an RP-LC retention time of 726 s. For `CCCCOc1ccc(-c2cc3c4nnc(CCC(=O)NCCc5cccs5)n4ccn3n2)cc1`, the RP-LC retention time was 943 s. For `CC(NC(=O)c1cn2c(n1)CSCC2)c1ccc(F)cc1` (centres undefined), the RP-LC retention time was 638 s. Work on `CCC(=O)NCc1nc2c(n1C)CN(S(=O)(=O)c1ccc(F)cc1F)CC2` yielded an RP-LC retention time of 600 s. Work on `Cc1cnc(-c2cccnc2)n1C1CCN(S(=O)(=O)c2cccnc2)C1` (centres undefined) yielded an RP-LC retention time of 575 s. `CC12CC(NC(=O)N1c1cccc(C(=O)Nc3ccc4c(c3)OCCO4)c1)c1ccccc1O2` (centres undefined) showed an RP-LC retention time of 830 s. With `CC(C)(C)NC(=O)c1ccc(-c2nnc3ccc(NC(=O)C4CC4)cn23)cc1` the RP-LC retention time was 731 s. Work on `Cc1ccc(-c2csc(NC(=O)CCc3nc(CSc4nc5ccc(C)cc5[nH]4)no3)n2)cc1` yielded an RP-LC retention time of 852 s. In the case of `CC(=O)N1CCN(c2nc3c(s2)CC(C(=O)NCc2ccc(F)cc2F)CC3)CC1` (centres undefined), the RP-LC retention time is reported as 544 s. Compound `O=c1nc(SCc2csc(-c3ccccc3)n2)c2c(n1CCCO)CCC2` has an RP-LC retention time of 736 s. With `COCc1nc(CCNC(=O)C2CCC2)no1` the RP-LC retention time was 609 s. Work on `CC(=O)c1cccc(NC(=O)CN2C(=O)NC3(CCCCC3)C2=O)c1` yielded an RP-LC retention time of 711 s. Compound `O=C(Nc1ccc2c(c1)OCCO2)N1CCC(n2c(-c3ccco3)nc3cccnc32)C1` (centres undefined) has an RP-LC retention time of 705 s.
